According to ChEMBL document CHEMBL1136693, “Aryl tetrahydropyridine inhibitors of farnesyltransferase: glycine, phenylalanine and histidine derivatives” (Bioorg Med Chem Lett, 2003):
pEC50, pIC50: −log10 of the molar value.

Target: Protein farnesyl/geranylgeranyl transferase (Homo sapiens) (UniProt P49354+P49356+P53609)
Test: Selectivity for farnesyl over geranylgeranyl transferase
Type: protein-complex assay

Row | Selectivity | SMILES
1 | 75000 | CCCCN(CCC1CCCCC1)Cc1ccc(C(=O)N[C@@H](CCSC)C(=O)O)c(-c2ccccc2C)c1

Target: Protein farnesyltransferase (Mus musculus, UniProt Q61239+Q8K2I1)
Test: Inhibition of Ras farnesylation in Human Ha-Ras-transformed BALB/c 3T3 cells
Type: functional, cell-based

Row | pEC50 | SMILES
2 | 7.80 | CCCCN(CCC1CCCCC1)Cc1ccc(C(=O)N[C@@H](CCSC)C(=O)O)c(-c2ccccc2C)c1
3 | 6.72 | Cn1cncc1C[C@@H](NCc1ccc(C#N)cc1)C(=O)N1CCC(C#N)=C(c2cccc3ccccc23)C1
4 | < 7.00 | CN(Cc1ccc(C#N)cc1)[C@H](Cc1cncn1C)C(=O)N1CCC(C#N)=C(c2cccc3ccccc23)C1

Target: Protein farnesyltransferase (Homo sapiens, UniProt P49354+P49356)
Test: In vitro inhibitory activity against farnesyl transferase
Type: protein-complex assay

Row | pIC50 | SMILES
5 | 6.55 | Cn1cncc1CN(CC(=O)N1CCC(C#N)=C(c2cccc3ccccc23)C1)Cc1ccccc1
6 | 9.15 | CSCC[C@H](NC(=O)C1=C(c2ccccc2C)CN(C(=O)OC(CCC2CCCCC2)c2cncs2)CC1)C(=O)O (some centres not stated)
7 | 6.62 | Cn1cncc1CN[C@H](Cc1ccc(C#N)cc1)C(=O)N1CCC(C#N)=C(c2cccc3ccccc23)C1
8 | 9.25 | CSCC[C@H](NC(=O)C1=C(c2ccccc2C)CN(C(=O)N(Cc2ccccc2)Cc2cncs2)CC1)C(=O)O
9 | 6.51 | Cn1cncc1CN[C@@H](Cc1ccc(C#N)cc1)C(=O)N1CCC(C#N)=C(c2cccc3ccccc23)C1
10 | 6.25 | Cn1cncc1CN(CC(=O)N1CCC(C#N)=C(c2cccc3ccccc23)C1)Cc1ccc(C#N)cc1
11 | 6.89 | Cn1cncc1C[C@H](NCc1ccc(C#N)cc1)C(=O)N1CCC(C#N)=C(c2cccc3ccccc23)C1

Target: Geranylgeranyl transferase type I (Homo sapiens, UniProt P49354+P53609)
Test: In vitro inhibitory activity against geranylgeranyltransferase-1 (type I)
Type: protein-complex assay

Row | pIC50 | SMILES
12 | 5.46 | Cn1cncc1C[C@@H](NCc1ccc(C#N)cc1)C(=O)N1CCC(C#N)=C(c2cccc3ccccc23)C1
